Reference: article PMC6406907, “A H2AX–CARP-1 Interaction Regulates Apoptosis Signaling Following DNA Damage” (Cancers, 2019)

Tested on: CARP-1, phospho-JNK1/2, phospho-H2AX
Assay: Western blot of CARP-1, phospho-JNK1/2, γH2AX in UOK 262
Type: cell-based, human
Details: 10 μM, UOK 262, WB
Description: Logarithmically growing cells were either untreated or treated with different agents for various time periods. The cells were lysed to prepare protein extracts. IP was carried out by incubating approximately 1 mg of the protein lysate with appropriate antibodies. The immunoprecipitates were then analyzed by SDS-PAGE, followed by WB with respective, interacting protein. For Gst-pulldown, Gst-H2AX or various His-TAT-HA-tagged CARP-1 peptides were generated in Escherichia coli (E. coli) BL21 cells essentially as described by us previously. Briefly, the competent E. coli BL-21 (DE3) pLysS cells were transformed separately with various recombinant pGEX-4T-1 or pTAT-HA constructs. The transformed cells were then subjected to selection by combined presence of ampicillin and chloramphenicol; various isolates for each transformation were obtained and bacterial lysates were characterized for expression of fusion peptides. Cells from each isolate were grown in 4 mL of LB medium containing ampicillin only until the optical density (OD)600 reached 0.4–0.8. […]
Here, we utilized human TNBC MDA-MB-468 and human cervical cancer HeLa cells to conduct an MTT-based dose-response analysis using Adriamycin and CFM compounds. […] The cell lysates from the control, untreated, and treated cells were analyzed by WB for expression of CARP-1, phospho-JNK1/2, phospho-H2AX, and poly ADP ribose polymerase (PARP) proteins. […]

COc1cccc2c1C(=O)c1c(O)c3c(c(O)c1C2=O)C[C@@](O)(C(=O)CO)C[C@@H]3O[C@H]1C[C@H](N)[C@H](O)[C@H](C)O1 [Adriamycin, doxorubicin, reference compound]
expression of CARP-1, phospho-JNK1/2, phospho-H2AX: stimulated expression of CARP-1, phospho-JNK1/2, and phospho-H2AX in a time-dependent manner

O=C1N(Cc2ccccc2Cl)c2ccccc2C12NN=C(c1cccc(Cl)c1)S2 (centres unmarked) [CFM-4.16]
expression of CARP-1, phospho-JNK1/2, phospho-H2AX: stimulated expression of CARP-1, phospho-JNK1/2, and phospho-H2AX in a time-dependent manner
